Test results as given in ChEMBL document CHEMBL1201862, “PubChem BioAssay data set” (2004).
Active and inactive are the calls of the source.

Assays:
[1] = biological target: Epstein-Barr nuclear antigen 1 (Epstein-Barr virus (strain B95-8) (HHV-4) (Human herpesvirus 4), UniProt P03211); assay: EBNA-1 inhibitors, dose response, biochemical, fluorescence polarization, 1536-well (AID 2381); parameters: species or system human gammaherpesvirus 4;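 also: fluorescence polarization of a Cy5 DNA probe bound by EBNA-1 protein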
[2] = biological target: Lytic switch protein BZLF1 (Epstein-Barr virus (strain B95-8) (HHV-4) (Human herpesvirus 4), UniProt P03206); assay: EBV ZTA inhibitors, dose response, counter-screen for EBNA-1 inhibitor project, biochemical, fluorescence polarization, Epstein-Barr virus, 1536-well (AID 2377); parameters: species or system human gammaherpesvirus 4;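 also: fluorescence polarization of Cy5-labelled ZRE DNA probe bound by purified Zta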
Mucolipin-3 = Mucolipin-3 (Homo sapiens, UniProt Q8TDD5); assay: Dose response cell-based high-throughput screening assay for agonists of the transient receptor potential channel ML3 (TRPML3). [Related pubchem assays: 1526, 1424, 1448 ]; format: functional
Ion channel NompC = Ion channel NompC (Danio rerio, UniProt Q7T1G6); assay: Fluorescence counterscreen assay for TRPML3 agonists: dose response cell-based high-throughput screening assay to identify agonists of the transient receptor potential channel N1 (TRPN1). [Related pubchem assays: 1526, 1424, 1448 ]; format: functional
[3] = A Cell Based Secondary Assay To Explore Cytotoxicity of Compounds that Sensitize Mycobacterium Tuberculosis to Beta-Lactam Antibiotics.; format: functional
[4] = inhibitors of intracellular T. cruzi replication, confirmation, NIH3T3 host cells, beta-gal luminescence (AID 2044); format: functional, cell-based;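 also: intracellular parasites grown in NIH/3T3 mouse fibroblasts as host cells; luminescent beta-galactosidase reporter signal from transgenic T. cruzi replicating inside host cells; inhibitors lower the luminescence signal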
[5] = cytotoxicity toward NIH3T3 fibroblasts, dose response, counter-screen, cell-based, ATP luminescence, mouse fibroblasts (AID 2010); format: functional;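 also: cells exposed to compound for about 90 hours before reading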
[6] = biological target: T1, DNA repair protein RAD52 homolog (Homo sapiens, UniProt P43351); format: functional, biochemical
T1 sequence (P43351 whole entry): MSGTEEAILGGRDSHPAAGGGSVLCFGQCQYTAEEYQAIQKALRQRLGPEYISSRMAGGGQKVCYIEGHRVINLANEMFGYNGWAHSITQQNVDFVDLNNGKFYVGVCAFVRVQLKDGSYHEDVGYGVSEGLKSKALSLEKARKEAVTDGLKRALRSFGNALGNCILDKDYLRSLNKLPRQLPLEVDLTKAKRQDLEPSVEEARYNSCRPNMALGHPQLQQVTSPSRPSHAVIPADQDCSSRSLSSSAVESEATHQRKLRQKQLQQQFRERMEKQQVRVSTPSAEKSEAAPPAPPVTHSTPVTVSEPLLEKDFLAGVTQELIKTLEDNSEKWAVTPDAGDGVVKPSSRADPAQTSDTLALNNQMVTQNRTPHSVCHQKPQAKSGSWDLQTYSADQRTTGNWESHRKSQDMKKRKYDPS

[7] = cytotoxicity in HPDE-C7 cells, cell-based, fluorescence, HTS (AID 430); format: functional; conditions: Homo sapiens
[8] = cytotoxicity in KRAS-transformed pancreatic duct cells, primary screen, cell-based, fluorescence, HTS (AID 431); format: functional; conditions: Homo sapiens;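 also: cell line used: HPDE-C7K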
[9] = growth suppression of PTEN-null colon cells, dose response, cell-based, HCT116 PTEN knockout (AID 1047); format: functional;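 also: HCT116 colon tumor cells with PTEN knocked out; cells exposed to compound for 60 hours before readout; potency for loss of cell viability measured by luminescence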
[10] = growth suppression of beta-catenin-knockout colon cells, dose response, cell-based, HCT116, human colon tumor (AID 1045); format: functional;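 also: HCT116 colon tumor cells with beta catenin knocked out; cells exposed to compound for 60 hours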
[11] = Luminescence Cell-Based Dose Retest to Confirm Inhibitors of Cancer Stem Cells. [Related pubchem assays (depositor defined):AID2717, AID2721]; format: functional; conditions: Homo sapiens
Bcl-2-related protein A1 = biological target: T2, Bcl-2-related protein A1 (Mus musculus, UniProt Q07440); format: functional;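 also: confirmatory dose–response counterscreen on Bfl-1, used to check hits from a UBC13 polyubiquitin inhibitor campaign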
T2 sequence (Q07440 whole entry): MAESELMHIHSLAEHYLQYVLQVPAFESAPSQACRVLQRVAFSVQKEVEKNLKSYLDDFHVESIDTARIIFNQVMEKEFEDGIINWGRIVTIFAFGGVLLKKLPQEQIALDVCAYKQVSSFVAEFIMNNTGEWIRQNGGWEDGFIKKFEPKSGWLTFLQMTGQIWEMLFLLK

[12] = biological target: T3, Ubiquitin-conjugating enzyme E2 N (Homo sapiens, UniProt P61088); format: functional
T3 sequence (P61088 whole entry): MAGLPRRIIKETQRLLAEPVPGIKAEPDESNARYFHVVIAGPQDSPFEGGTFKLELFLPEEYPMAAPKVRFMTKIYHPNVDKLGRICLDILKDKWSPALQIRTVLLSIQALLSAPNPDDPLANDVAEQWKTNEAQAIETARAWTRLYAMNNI

[13] = biological target: T3, Ubiquitin-conjugating enzyme E2 N; format: functional; remark: listed apart in the source
NADPH oxidase 1 = biological target: T4, NADPH oxidase 1 (Homo sapiens, UniProt Q9Y5S8); format: functional, cell-based;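 also: Cell-based assay with luminescence read-out, IC50 derived from inhibitor dose-response curves; intracellular ROS from endogenous NOX1 in intact HT29 colon cancer cells; potency of inhibitors that lower the ROS luminescence signal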
T4 sequence (Q9Y5S8 whole entry): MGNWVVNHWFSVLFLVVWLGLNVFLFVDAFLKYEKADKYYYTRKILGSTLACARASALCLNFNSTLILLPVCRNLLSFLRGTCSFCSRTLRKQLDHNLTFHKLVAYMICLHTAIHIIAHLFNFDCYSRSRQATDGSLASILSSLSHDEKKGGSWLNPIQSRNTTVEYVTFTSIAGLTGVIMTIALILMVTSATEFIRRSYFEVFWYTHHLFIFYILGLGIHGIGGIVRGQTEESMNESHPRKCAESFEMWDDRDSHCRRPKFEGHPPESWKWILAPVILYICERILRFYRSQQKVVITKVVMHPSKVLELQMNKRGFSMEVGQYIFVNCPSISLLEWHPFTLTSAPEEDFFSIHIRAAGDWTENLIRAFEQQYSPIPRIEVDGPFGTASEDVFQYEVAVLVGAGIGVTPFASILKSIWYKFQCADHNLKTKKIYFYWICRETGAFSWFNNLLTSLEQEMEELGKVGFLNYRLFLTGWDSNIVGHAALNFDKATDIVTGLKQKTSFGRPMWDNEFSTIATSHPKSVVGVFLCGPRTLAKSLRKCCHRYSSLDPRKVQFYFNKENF

Estrogen receptor = biological target: T5, Estrogen receptor (Homo sapiens, UniProt P03372);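 also: potency for inhibiting coactivator peptide recruitment to the receptor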
T5 sequence (P03372 whole entry): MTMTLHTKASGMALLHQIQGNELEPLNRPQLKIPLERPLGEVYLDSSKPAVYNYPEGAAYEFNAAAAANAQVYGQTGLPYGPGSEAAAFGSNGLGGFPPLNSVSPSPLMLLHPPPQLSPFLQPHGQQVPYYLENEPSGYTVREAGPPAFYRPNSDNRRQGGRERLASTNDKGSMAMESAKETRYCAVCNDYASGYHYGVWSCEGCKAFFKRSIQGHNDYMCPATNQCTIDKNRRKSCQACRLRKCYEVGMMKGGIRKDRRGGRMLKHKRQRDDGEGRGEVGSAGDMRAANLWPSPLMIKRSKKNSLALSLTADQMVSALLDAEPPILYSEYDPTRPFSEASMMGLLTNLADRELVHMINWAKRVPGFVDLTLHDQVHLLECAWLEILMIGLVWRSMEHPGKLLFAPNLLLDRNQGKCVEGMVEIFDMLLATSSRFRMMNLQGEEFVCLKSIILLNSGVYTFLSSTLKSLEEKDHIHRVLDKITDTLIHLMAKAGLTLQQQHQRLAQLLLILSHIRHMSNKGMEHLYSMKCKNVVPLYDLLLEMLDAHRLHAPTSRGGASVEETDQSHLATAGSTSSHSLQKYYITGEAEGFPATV

[14] = biological target: Long-chain-fatty-acid--AMP ligase FadD28 (Mycobacterium tuberculosis, UniProt P9WQ59); assay: Fluorescence polarization aasay to screen for inhibitors that compete for the binding of FadD28 to a bisubstrate Measured in Biochemical System Using Plate Reader - 2147-01_Inhibitor_Dose_CherryPick_Activity.; format: functional, Mycobacterium tuberculosis H37Rv
[15] = inhibitors of firefly luciferase expression or activity, dose response, H4 neuroglioma cells, luminescence (AID 1990); format: functional, cell-based
[16] = Luminescence Cell-Based Dose Response HTS to Identify Inhibitors of 5'UTR Stem-Loop Driven Prion Protein mRNA Translation in H4 Neuroglioblastoma Cells. [Related pubchem assays: 1827 (Project Summary), 1813 (Primary HTS)]; format: functional
[17] = inhibitors of SNCA 5'UTR-driven reporter translation, confirmation, H4 neuroglioma cells, luminescence (AID 1988); format: functional, cell-based
[18] = biological target: T6, Mannose-6-phosphate isomerase (Homo sapiens, UniProt P34949); assay: inhibitors of human PMI, primary screen, biochemical, fluorescence intensity, coupled assay (AID 1209)
T6 sequence (P34949 whole entry): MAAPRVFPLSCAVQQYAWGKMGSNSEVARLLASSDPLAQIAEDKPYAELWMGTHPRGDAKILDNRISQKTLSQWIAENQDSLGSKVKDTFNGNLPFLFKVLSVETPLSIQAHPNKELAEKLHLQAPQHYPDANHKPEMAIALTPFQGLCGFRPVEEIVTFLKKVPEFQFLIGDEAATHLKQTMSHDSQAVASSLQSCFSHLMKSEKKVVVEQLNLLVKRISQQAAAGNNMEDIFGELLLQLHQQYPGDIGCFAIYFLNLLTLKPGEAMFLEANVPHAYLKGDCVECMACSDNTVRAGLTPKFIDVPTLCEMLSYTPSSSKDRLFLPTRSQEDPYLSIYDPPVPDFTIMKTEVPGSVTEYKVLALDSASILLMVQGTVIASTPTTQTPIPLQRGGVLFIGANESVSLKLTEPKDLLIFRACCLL

[19] = biological target: T6, Mannose-6-phosphate isomerase; assay: human PMI inhibitors, high substrate, primary screen, biochemical, fluorescence intensity, high mannose 6-phosphate (AID 1220)

Chain of Lytic switch protein BZLF1 (P03206 whole entry): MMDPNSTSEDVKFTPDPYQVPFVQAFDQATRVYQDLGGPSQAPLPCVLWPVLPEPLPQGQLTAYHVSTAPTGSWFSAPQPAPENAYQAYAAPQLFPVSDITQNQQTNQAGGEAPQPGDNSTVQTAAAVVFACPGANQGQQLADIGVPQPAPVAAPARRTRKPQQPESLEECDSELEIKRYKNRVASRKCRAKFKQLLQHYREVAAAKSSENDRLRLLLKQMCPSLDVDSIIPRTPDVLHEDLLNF
Chain of Ion channel NompC (Q7T1G6 whole entry): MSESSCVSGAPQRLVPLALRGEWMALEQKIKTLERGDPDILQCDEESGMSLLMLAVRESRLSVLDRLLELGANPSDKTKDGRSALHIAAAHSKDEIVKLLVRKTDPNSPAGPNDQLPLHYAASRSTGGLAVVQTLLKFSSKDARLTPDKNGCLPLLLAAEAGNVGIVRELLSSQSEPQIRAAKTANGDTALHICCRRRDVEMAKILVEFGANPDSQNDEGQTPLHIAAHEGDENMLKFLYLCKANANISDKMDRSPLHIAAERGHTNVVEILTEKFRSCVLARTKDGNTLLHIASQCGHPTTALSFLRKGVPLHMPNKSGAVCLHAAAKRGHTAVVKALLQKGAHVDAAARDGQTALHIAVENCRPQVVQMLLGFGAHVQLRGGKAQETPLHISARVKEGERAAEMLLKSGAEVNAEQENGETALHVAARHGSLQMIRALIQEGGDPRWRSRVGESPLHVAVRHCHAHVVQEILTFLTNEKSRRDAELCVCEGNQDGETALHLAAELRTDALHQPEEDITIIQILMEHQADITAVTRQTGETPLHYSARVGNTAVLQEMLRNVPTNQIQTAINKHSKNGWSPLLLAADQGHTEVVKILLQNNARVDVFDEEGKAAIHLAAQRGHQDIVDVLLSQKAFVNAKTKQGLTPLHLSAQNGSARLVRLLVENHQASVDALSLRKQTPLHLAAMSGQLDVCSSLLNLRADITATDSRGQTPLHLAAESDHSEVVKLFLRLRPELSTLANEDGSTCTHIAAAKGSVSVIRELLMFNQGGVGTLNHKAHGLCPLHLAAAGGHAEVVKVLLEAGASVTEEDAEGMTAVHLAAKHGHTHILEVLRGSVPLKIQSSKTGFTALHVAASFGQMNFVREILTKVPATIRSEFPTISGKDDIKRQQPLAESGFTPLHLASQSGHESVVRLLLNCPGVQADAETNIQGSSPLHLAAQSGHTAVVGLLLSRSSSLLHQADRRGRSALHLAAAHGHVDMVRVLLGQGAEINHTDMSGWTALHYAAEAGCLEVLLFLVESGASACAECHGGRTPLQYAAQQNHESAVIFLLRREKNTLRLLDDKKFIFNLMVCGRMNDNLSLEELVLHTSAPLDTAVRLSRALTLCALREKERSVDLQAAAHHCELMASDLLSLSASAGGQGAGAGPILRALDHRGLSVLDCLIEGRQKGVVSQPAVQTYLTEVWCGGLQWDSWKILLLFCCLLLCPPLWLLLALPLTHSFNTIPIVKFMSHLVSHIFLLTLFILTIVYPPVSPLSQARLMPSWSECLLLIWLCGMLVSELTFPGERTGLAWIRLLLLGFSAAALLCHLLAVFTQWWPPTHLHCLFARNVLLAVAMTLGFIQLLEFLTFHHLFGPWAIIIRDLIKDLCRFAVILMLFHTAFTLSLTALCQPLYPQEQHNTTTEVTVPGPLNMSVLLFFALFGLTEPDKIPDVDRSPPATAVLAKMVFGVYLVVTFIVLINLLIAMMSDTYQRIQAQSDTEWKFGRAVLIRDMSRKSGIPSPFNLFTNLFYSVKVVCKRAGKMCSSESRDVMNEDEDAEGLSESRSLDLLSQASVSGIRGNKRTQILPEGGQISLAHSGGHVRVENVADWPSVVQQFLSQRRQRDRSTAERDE
Chain of Epstein-Barr nuclear antigen 1 (P03211 whole entry): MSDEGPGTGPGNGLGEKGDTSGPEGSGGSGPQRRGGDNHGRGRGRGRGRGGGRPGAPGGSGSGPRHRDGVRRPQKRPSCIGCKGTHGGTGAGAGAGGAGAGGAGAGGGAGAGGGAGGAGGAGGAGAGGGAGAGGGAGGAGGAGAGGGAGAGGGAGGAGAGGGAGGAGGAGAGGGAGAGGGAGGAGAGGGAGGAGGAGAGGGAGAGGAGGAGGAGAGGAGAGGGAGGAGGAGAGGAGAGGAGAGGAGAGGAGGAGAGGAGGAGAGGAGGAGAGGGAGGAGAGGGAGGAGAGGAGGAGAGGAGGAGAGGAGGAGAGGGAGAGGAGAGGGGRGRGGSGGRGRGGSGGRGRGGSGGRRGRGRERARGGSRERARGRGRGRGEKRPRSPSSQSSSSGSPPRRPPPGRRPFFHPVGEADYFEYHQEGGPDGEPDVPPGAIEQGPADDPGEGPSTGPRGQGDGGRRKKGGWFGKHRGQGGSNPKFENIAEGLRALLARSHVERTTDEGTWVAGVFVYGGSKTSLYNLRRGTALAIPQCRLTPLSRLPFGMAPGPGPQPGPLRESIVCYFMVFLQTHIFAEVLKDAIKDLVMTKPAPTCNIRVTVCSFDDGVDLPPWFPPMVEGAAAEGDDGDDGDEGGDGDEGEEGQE
Chain of Mucolipin-3 (Q8TDD5 whole entry): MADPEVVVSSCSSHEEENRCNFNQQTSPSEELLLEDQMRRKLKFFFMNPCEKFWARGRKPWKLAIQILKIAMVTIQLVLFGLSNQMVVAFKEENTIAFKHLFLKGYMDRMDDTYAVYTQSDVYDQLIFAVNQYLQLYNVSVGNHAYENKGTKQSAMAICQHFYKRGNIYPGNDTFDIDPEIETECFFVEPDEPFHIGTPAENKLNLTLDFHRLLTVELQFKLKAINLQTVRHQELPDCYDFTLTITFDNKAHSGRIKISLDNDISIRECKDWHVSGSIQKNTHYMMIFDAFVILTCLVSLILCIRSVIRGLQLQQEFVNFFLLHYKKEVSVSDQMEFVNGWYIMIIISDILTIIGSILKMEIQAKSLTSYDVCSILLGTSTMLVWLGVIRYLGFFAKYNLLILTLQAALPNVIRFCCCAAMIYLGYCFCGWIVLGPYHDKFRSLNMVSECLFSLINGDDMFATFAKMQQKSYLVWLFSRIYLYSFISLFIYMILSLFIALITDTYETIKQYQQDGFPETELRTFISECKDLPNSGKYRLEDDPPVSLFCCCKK
Chain of Long-chain-fatty-acid--AMP ligase FadD28 (P9WQ59 whole entry): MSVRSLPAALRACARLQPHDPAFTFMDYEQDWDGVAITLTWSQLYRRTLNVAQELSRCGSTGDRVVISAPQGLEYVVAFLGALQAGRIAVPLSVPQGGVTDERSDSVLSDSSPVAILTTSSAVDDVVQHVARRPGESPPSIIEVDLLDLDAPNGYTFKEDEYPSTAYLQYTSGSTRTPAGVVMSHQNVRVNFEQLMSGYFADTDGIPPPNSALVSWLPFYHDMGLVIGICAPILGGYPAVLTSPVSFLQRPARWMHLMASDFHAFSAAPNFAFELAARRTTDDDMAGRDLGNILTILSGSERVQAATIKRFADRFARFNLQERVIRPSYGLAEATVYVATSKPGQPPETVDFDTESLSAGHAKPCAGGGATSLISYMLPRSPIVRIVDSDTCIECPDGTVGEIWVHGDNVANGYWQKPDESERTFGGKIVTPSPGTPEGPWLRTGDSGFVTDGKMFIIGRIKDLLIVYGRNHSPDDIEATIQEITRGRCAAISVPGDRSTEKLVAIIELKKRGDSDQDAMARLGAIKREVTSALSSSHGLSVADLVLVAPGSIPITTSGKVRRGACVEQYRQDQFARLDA

In the case of `COc1ccc(NC(S)=NN=C(S)Nc2cccc(C(F)(F)F)c2)cc1`, the IC50 [1] is reported as 6.7 µM (active) and the IC50 [2] is reported as > 111 µM (not active).

For `Cc1cc(S(=O)(=O)N2CCCCCC2)c(Cl)cc1Cl`, the EC50 (Mucolipin-3) was > 29.9 µM (not active) and the EC50 (Ion channel NompC) was > 29.9 µM (not active).

For `Cc1cc(C)cc(NC(=O)c2cc(Cl)sc2Cl)c1`, the CC50 [3] was > 20 µM (active).

With `CN(C)CCCN(C(=O)c1ccco1)c1nc2cc3c(cc2s1)OCO3` the EC50 [4] was < 0.1 µM (active), the EC50 [5] was > 60 µM (not active) and the AC50 [6] was 25.2 µM (active). For the same compound, the EC50 (cells) was 0.213 µM (active).

For `OCCN1CCN(CCCN2c3ccccc3Sc3ccc(C(F)(F)F)cc32)CC1`, the EC50 [7] was 13.2 µM (active), the EC50 [8] was 9.66 µM (active) and the EC50 [9] was 8.4 µM (active). The EC50 [10] was 8.41 µM (active), the AC50 [11] was 4.16 µM (active) and the IC50 (Bcl-2-related protein A1) was > 20 µM (inactive). The IC50 [12] was 17.5 µM (active), the IC50 [13] was 17.3 µM (active) and the AC50 [6] was 12.7 µM (active).

For `S=C(CCC(=S)Nc1ccc(Cl)cc1)Nc1ccc(Cl)cc1`, the IC50 (NADPH oxidase 1) was > 17 µM (not active).

For `O=Cc1cn(-c2ccccc2)nc1-c1cc2c(ccc3ccccc32)oc1=O`, the IC50 (Estrogen receptor) was 19.6 µM (active).

For `COc1ccc(-n2c(SCC(=O)Nc3nccs3)nc3sc4c(c3c2=O)CCN(C)C4)cc1`, the IC50 (Estrogen receptor) was 8.48 µM (active).

In the case of `CCCCCCCCNC(C)C(O)c1ccc(SC(C)C)cc1` (configuration not stated), the EC50 [7] is reported as > 20 µM (not active), the EC50 [8] is reported as > 20 µM (not active) and the EC50 [9] is reported as 15.2 µM (active). For the same compound, the EC50 [10] was 11.3 µM (active) and the AC50 [14] was 64.1 µM (active).

With `O=C(Cn1cnc2ccccc2c1=O)Nc1nc2ccccc2s1` the IC50 [1] was 51.4 µM (not active) and the IC50 [2] was > 111 µM (not active).

With `Cc1ccccc1NCc1ccc(O)c2ncccc12` the EC50 [15] was 11.2 µM (active), the EC50 [16] was > 120 µM (not active) and the EC50 [17] was 10.4 µM (active). The IC50 [18] was 12.5 µM (active) and the IC50 [19] was 11.5 µM (active).

For `COC(=O)CN(c1cc(Cl)ccc1OC)S(=O)(=O)c1ccc(C)cc1`, the EC50 (Mucolipin-3) was 3.49 µM (active) and the EC50 (Ion channel NompC) was > 29.9 µM (not active).

With `O=C(Oc1ccc(-c2nnco2)cc1)c1sc2ccccc2c1Cl` the IC50 (NADPH oxidase 1) was > 17 µM (not active).

For `CCOC(=O)c1sc(NC(=O)CN2CCCC2)c(C(=O)OCC)c1C`, the CC50 [3] was > 40 µM (active).
